Measured values taken from ChEMBL document CHEMBL5291721, “A preclinical secondary pharmacology resource illuminates target-adverse drug reaction associations of marketed drugs” (Nat Commun, 2023).

Tests used:
[1] = biological target: T1, Type-2 angiotensin II receptor (Homo sapiens, UniProt P50052); assay type: functional
T1 sequence (P50052 whole entry): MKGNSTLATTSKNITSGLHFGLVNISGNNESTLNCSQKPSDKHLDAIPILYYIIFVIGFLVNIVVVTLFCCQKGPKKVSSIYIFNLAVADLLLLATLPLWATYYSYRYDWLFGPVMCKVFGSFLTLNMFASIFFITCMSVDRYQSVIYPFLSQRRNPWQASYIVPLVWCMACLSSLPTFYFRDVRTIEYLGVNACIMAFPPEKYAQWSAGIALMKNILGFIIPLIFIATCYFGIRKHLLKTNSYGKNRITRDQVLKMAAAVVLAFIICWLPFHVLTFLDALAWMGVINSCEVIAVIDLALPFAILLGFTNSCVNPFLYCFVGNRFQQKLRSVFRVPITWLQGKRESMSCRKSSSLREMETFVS

[2] = biological target: T2, Muscarinic acetylcholine receptor M2 (Homo sapiens, UniProt P08172)
T2 sequence (P08172 whole entry): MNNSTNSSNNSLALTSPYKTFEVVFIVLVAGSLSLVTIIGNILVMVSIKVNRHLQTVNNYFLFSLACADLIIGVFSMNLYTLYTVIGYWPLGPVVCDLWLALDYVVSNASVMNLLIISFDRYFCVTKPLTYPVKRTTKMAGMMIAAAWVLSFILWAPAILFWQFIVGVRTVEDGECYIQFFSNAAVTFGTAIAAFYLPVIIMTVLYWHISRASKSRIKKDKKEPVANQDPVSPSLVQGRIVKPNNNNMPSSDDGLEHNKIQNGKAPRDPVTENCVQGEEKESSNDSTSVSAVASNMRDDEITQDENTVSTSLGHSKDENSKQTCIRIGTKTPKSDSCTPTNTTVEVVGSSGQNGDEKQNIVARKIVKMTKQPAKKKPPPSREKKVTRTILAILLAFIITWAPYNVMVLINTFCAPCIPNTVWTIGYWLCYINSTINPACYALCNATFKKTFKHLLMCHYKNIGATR

Estrogen receptor = biological target: T3, Estrogen receptor (Homo sapiens, UniProt P03372); assay type: functional
T3 sequence (P03372 whole entry): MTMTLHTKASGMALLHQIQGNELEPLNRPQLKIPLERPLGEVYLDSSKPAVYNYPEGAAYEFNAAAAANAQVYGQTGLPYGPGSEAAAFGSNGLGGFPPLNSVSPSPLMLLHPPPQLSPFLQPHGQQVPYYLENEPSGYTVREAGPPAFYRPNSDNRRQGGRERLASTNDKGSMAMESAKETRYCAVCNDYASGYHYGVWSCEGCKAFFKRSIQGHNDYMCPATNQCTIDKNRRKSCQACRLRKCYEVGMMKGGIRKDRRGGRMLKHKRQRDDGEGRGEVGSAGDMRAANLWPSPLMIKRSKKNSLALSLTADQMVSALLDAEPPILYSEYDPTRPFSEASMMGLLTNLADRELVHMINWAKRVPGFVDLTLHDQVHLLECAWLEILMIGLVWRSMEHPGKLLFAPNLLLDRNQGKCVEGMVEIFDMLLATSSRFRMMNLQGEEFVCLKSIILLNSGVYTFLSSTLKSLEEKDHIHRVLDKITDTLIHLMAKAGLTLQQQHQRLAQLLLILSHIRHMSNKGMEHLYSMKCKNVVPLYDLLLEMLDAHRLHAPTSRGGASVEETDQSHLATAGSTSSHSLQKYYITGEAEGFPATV

Glucocorticoid receptor = biological target: T4, Glucocorticoid receptor (Homo sapiens, UniProt P04150); assay type: functional
T4 sequence (P04150 whole entry): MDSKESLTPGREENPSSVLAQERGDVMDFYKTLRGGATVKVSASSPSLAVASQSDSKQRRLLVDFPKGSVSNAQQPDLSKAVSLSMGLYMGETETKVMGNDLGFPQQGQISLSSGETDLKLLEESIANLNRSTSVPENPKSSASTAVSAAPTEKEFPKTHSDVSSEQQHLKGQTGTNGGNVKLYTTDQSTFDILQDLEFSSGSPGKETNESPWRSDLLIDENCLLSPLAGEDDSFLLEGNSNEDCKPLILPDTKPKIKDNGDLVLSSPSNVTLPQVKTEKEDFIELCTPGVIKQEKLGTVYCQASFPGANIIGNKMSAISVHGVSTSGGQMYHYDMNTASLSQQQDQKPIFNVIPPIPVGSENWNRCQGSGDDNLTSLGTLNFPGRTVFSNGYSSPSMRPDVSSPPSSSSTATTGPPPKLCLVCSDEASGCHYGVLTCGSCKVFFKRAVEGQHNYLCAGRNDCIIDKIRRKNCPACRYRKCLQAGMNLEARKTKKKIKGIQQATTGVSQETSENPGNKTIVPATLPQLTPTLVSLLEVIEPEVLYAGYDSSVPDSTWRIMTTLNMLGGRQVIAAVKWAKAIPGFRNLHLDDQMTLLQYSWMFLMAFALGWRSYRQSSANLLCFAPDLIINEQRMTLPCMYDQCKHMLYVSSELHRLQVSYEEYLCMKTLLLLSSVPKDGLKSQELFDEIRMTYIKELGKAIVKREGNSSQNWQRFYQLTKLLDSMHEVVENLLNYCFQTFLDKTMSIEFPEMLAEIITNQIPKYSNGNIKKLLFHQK

Thromboxane A2 receptor = biological target: T5, Thromboxane A2 receptor (Homo sapiens, UniProt P21731); assay type: functional
T5 sequence (P21731 whole entry): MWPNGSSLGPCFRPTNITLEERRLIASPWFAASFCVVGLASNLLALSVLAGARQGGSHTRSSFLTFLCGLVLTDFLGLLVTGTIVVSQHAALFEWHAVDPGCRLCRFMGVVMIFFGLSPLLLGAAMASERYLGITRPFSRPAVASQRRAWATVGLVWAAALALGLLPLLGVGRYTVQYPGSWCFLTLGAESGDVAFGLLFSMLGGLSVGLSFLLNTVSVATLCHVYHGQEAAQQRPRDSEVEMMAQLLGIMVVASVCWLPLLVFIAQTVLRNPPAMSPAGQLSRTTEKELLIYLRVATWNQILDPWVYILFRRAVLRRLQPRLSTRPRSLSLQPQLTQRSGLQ
Also: assay procedure not described here.

How did the AC50 [1] turn out when `CCCCc1ncc(/C=C(\Cc2cccs2)C(=O)O)n1Cc1ccc(C(=O)O)cc1` [EPROSARTAN] was run?
Its AC50 is greater than 100 µM.

Which AC50 [2] does the source give for `CC(C[N+](C)(C)C)OC(N)=O` (stereo not drawn) [BETHANECHOL] here?
Its AC50 is greater than 30 µM.

Which results are given for `C/C(O)=C(\C#N)C(=O)Nc1ccc(C(F)(F)F)cc1` [TERIFLUNOMIDE]?
AC50 (Estrogen receptor): > 30 µM; AC50 (Glucocorticoid receptor): > 10 µM

`CC(=O)O[C@H]1CC[C@@]2(C)C(=CC[C@@H]3[C@@H]2CC[C@]2(C)C(c4cccnc4)=CC[C@@H]32)C1` [ABIRATERONE ACETATE] was tested. Which AC50 (Estrogen receptor) did it give?
The AC50 was greater than 30 µM.

And the AC50 (Glucocorticoid receptor)?
Its AC50 is greater than 30 µM.

For `C[C@](N)(Cc1ccc(O)c(O)c1)C(=O)O` [METHYLDOPA], which AC50 [1] is on record?
Its AC50 is greater than 100 µM.

How did the AC50 (Thromboxane A2 receptor) turn out when `CC(C)OC(=O)CCC/C=C\C[C@@H]1[C@@H](CC[C@@H](O)CCc2ccccc2)[C@H](O)C[C@@H]1O` [LATANOPROST] was run?
Its AC50 is greater than 10 µM.
